Values joined by “and” are separate entries in the source; they are usually repeats but may differ in a detail not shown here. Equal values may be shown once.
target: Nonstructural protein 3 (Zika virus, UniProt A0A024AXB9); experiment: Functional biochemical assay to identify treatments for viral infectious disease that targets Zika NS2B-NS3 protease. Utilizing a direct enzyme activity measurement method, reading the fluorescence intensity is used to characterize the relative potency of inhibitors as IC50.; set-up: species or system PRVABC59
Sequence (A0A024AXB9 whole entry): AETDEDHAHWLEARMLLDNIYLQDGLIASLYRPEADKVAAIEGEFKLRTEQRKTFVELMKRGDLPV

| IC50 | SMILES |
| --- | --- |
| > 99.5 µM | O=C(N[C@H](C(=O)NCc1cccc(CO)c1)c1ccc(OCc2ccccc2)cc1)OCc1ccccc1 |
| 3.62 µM | O=C(NCC(F)F)[C@H](Nc1ccc2c(c1)CNC2)c1cccc2c1CCC2 |
| > 25 µM | O=C(Nc1ccc2c(c1)CNC2)[C@H]1C[C@@H]1c1ccccc1 |
| 11.6 µM | NCc1cccc(NC(=O)[C@@H](NC(=O)OCc2ccccc2)c2ccc(OCc3ccccc3)cc2)c1 |
| 73.2 µM | COc1ccc(F)cc1-c1ccc(S(=O)(=O)Nc2ccc(Cl)cc2C(N)=O)cc1 |
| > 99.5 µM | CN(C)[C@H]1CCc2cc(-c3cccc(N4CCNC4=O)c3)ccc2NC1 |
| 7.81 µM | CC(C)CNC(=O)c1cc(Cl)c(F)cc1NS(=O)(=O)c1ccc(Oc2ccccc2Cl)cc1 |
| > 99.5 µM | Cc1c(C(=O)Nc2cccc([C@@H](C)N)c2)cc(C2CC2)n1C |
| > 99.5 µM | CCn1c(=O)c(N2CC(S(=O)(=O)N3CCCC3)C2)nc2ccccc21 |
| > 99.5 µM | Cc1ccc(CNC(=O)c2cc(Cl)ccc2NS(=O)(=O)c2ccc(Oc3ccccc3Cl)cc2)s1 |
| 17.8 µM | N#Cc1ccc2[nH]cc(CN3CCC(c4cscn4)CC3)c2c1 |
| > 99.5 µM | O=C1Nc2ccccc2[C@H]1N1CCC(c2nc3ccccc3s2)CC1 |
| 19.8 µM | CS(=O)(=O)c1ccc(CN)cc1NC(=O)c1cc(Cl)cc(NC(=O)OCc2ccccc2)c1 |
| > 99.5 µM | CCCC[C@H](NC(=O)OC(C)(C)C)C(=O)N[C@H](C(=O)NCc1ccc(C(N)=O)cc1)c1ccc(OCc2ccccc2)cc1 |
| > 99.5 µM | O=C(O)c1cc2cccc(Cc3c[nH]c4ccc(Cl)cc34)c2[nH]1 |
| > 99.5 µM | O=C(Nc1ccc2c(c1)CNC2)c1ccc2c(c1)NCCO2 |
| 0.092 µM and 0.046 µM | O=C(Nc1cc2c(cc1C1CC1)CNC2)c1cc(F)cc2[nH]ncc12 |
| 7.58 µM | O=C(Nc1cc(Cl)cc(-c2ccc3[nH]c(C(=O)O)cc3c2)c1)OCc1ccccc1 |
| > 99.5 µM | O=C(O)c1cc(Cl)ccc1NS(=O)(=O)c1ccc(Oc2ccccc2Cl)nc1 |
| > 25 µM | O=C(Nc1cc(-c2cccnc2)ccn1)c1csc(C2CC2)n1 |
| 9.61 µM | COC(=O)c1cc(NC(=O)c2cc(Cl)cc(NC(=O)OCc3ccccc3)c2)cc(-c2nnn[nH]2)c1 |
| 25.7 µM | O=C(O)c1cc(Cl)ccc1NS(=O)(=O)c1ccc(-c2cccc(F)c2F)cc1 |
| > 99.5 µM | CCn1cc(-c2ccc(C(F)F)nc2)nc(N2CC[C@@H](CO)C2)c1=O |
| 73.3 µM and 80.1 µM | CCCCCC(=O)N[C@H](C(=O)NCc1cccc(CN)c1)c1ccc(OCc2ccccc2)cc1 |

| IC50 | SMILES |
| --- | --- |
| > 99.5 µM | CCn1c(=O)c(N2CCC[C@@H]2Cn2cncn2)nc2ccccc21 |
| 64.4 µM | NCc1cccc(NC(=O)[C@H](NC(=O)OCc2ccccc2)c2ccc(Br)c(F)c2)c1 |
| > 99.5 µM | Cn1ncnc1Sc1nc(C2CCCC2)ns1 |
| > 99.5 µM | CC(C)c1noc2nc(C3CC3)cc(C(=O)Nc3cccc(CN)c3)c12 |
| 0.366 µM | O=C(Nc1cnc2c(c1)CNCC2)c1cc(Cl)cc2[nH]ncc12 |
| 7.03 µM and 8.01 µM | COc1cccc(-c2ccc([C@@H](NC(=O)OCc3ccccc3)C(=O)Nc3cccc(CN)c3)cc2)c1 |
| 31.9 µM | O=C(O)c1cc(F)c(F)cc1NS(=O)(=O)c1ccc(Oc2ccccc2Cl)cc1 |
| > 99.5 µM | O=C(Nc1cc(Cl)cc(C(=O)Nc2ccc3c(c2)C[C@H](F)C3)c1)OCc1ccccc1 |
| > 99.5 µM | NCc1cccc(NC(=O)C2(CNC(=O)OCc3ccccc3)CCCC2)c1 |
| > 99.5 µM | NC[C@H]1C[C@H]1NC(=O)c1cc(Cl)cc(NC(=O)OCc2ccccc2)c1 |
| > 25 µM | Cc1c(C(=O)Nc2cc(C#N)cn(C)c2=O)cc(C2CC2)n1C |
| > 25 µM | O=C(Nc1ccc2[nH]ncc2c1)c1cc(F)cc2[nH]ncc12 |
| > 25 µM | NCc1cc(CC(=O)O)cc([C@H]2C[C@@H]2c2cc(Cl)cc(NC(=O)OCc3ccccc3)c2)c1 |
| 10.4 µM | CSc1cc(Cl)cc(C(=O)Nc2cccc(CN)c2)c1 |
| 15.4 µM | N#Cc1cc(NC(=O)OCc2ccccc2)cc(C(=O)Nc2cccc(CN)c2)c1 |
| 0.749 µM | CCNC(=O)Nc1cc(Cl)cc(C(=O)Nc2ccc3c(c2)CNCCO3)c1 |
| > 99.5 µM | NCc1cccc(NC(=O)[C@H]2COCC3(CCC3)O2)c1 |
| 5.12 µM | NCc1ccc([C@H]2C[C@@H]2c2cc(Cl)cc(NC(=O)OCc3ccccc3)c2)cc1 |
| 53 nM (2×) and 32 nM | CCc1cccc(-c2nc3c(C(=O)Nc4ccc5c(c4)CNC5)cc(F)cc3[nH]2)c1 |
| 14.6 µM | NCc1cc(C(=O)N2CCNC(=O)C2)cc([C@@H]2C[C@H]2c2cc(Cl)cc(NC(=O)OCc3ccccc3)c2)c1 |
| 52.9 µM | NCc1cccc(NC(=O)c2cc(Cl)cc(CN3CCOCC3)c2)c1 |
| > 99.5 µM | Cc1nocc1S(=O)(=O)N[C@H](C(=O)Nc1cccc(CN)c1)c1ccc(OCc2ccccc2)cc1 |
| > 99.5 µM | CCn1c(=O)c(N2CC[C@]3(CCCN(C)C3)C2)nc2ccccc21 |
| 1.6 µM | CCc1ncc(Cl)cc1C(=O)Nc1ccc2c(c1)CNC2 |

| IC50 | SMILES |
| --- | --- |
| > 99.5 µM | Clc1cc(CCc2cccc(-c3nn[nH]n3)c2)c2cn[nH]c2c1 |
| > 25 µM | O=C(Nc1ccc2c(c1)CNC2)c1nc2ccccc2s1 |
| 94.2 µM | COc1cc(-c2cc(Cl)cc(NC(=O)OCc3ccccc3)c2)c(OC)cc1CC(=O)O |
| > 99.5 µM | O=C(Nc1cc(Cl)cc([C@H](Nc2cccc(-c3nn[nH]n3)c2)C(=O)NC2CCOCC2)c1)OCc1ccccc1 |
| 81.6 µM | CCN1CCN(c2ccc(NC(=O)C3CCN(c4ccc(C=O)cc4)CC3)cc2)CC1 |
| > 99.5 µM | O=C(O)c1cc(Cl)ccc1NS(=O)(=O)c1ccc(-c2ccncc2)cc1 |
| 53.6 µM and 54.4 µM | NCc1cccc(NC(=O)[C@@H](NC(=O)OCc2ccccc2)c2ccc(Br)cc2)c1 |
| > 99.5 µM | O=C(Nc1cc(Cl)cc(-c2ccn3c(C(=O)O)cnc3c2)c1)OCc1ccccc1 |
| > 99.5 µM | CC(C)(C)OC(=O)NCc1cc(Cl)cc(C(=O)O)c1 |
| > 99.5 µM | Cn1cc(NS(=O)(=O)c2ccc(Oc3ccccc3Cl)cc2)c(C(=O)O)n1 |
| 60.8 µM | CS(=O)(=O)c1cncc(-c2cccc([C@H](NC(=O)OCc3ccccc3)C(=O)Nc3cccc(CN)c3)c2)c1 |
| > 99.5 µM | CCN1CCN(c2ccc(NS(=O)(=O)c3ccc(Cl)cc3C(=O)O)cc2)CC1 |
| 31 nM (2×) and 18 nM | Cc1ccccc1-c1nc2c(C(=O)Nc3ccc4c(c3)CNC4)cc(F)cc2[nH]1 |
| 3.03 µM | O=C1Cc2c(cccc2C(=O)Nc2ccc3c(c2)CNCC3)N1 |
| > 99.5 µM | O=C(O)Cc1cc(NS(=O)(=O)c2ccc(Oc3ccccc3Cl)cc2)ccc1Cl |
| 0.137 µM | CC1=C(c2cc(NC(=O)c3cc(Cl)cc4[nH]ncc34)cc3c2CNC3)CCC1=O |
| > 25 µM | Cc1ccc2[nH]ncc2c1C(=O)Nc1ccc2c(c1)CNC2 |
| 0.369 µM | CS(=O)(=O)N1CC[C@]2(C1)C(=O)Nc1cccc(C(=O)Nc3ccc4c(c3)CNC4)c12 |
| 52.4 µM | O=C(Nc1cc(Cl)cc(N[C@H](C#CCO)c2ccc(-c3nn[nH]n3)cc2)c1)OCc1ccccc1 |
| > 25 µM | CC(C)(C)OC(=O)N1Cc2ccc(NC(=O)c3cc(Cl)cc4[nH]ncc34)cc2C1 |
| > 99.5 µM | O=C(Nc1cc(Cl)cc([C@H](Nc2cccc(-c3nn[nH]n3)c2)C(=O)N[C@H]2CCOC2)c1)OCc1ccccc1 |
| > 99.5 µM | N#Cc1csc(CN2CCC([C@H](NC(=O)OCc3ccccc3)C(=O)Nc3cccc(CN)c3)CC2)c1 |
| 0.589 µM | CNC(=O)[C@H](Nc1cc(CN)cc(-c2nn[nH]n2)c1)c1cc(Cl)cc(C2CC2)c1 |
| 2.46 µM | CC(C)(C)c1ccc(Cl)cc1C(=O)Nc1ccc2c(c1)CNC2 |

| SMILES | IC50 |
| --- | --- |
| C[C@H]1CN(C(=O)Cc2ccc(C=O)[nH]2)CCN1C1CCCC1 | > 99.5 µM |

— ChEMBL document CHEMBL5604062, “ASAP - ZIKV NS2B-NS3 protease fluorescence dose response” (2024)
